Experimental data: patent publication US20250332149A1, “PIPERIDINE COMPOUNDS AND PHARMACEUTICAL COMPOSITIONS” (Lumos Pharma, Inc., priority 2024, published 2025)

System: serum growth hormone (GH)
Assay: Phase 1 study Part 2: PD, serum GH concentration fasted vs fed
Assay type: in vivo, human
Settings: for serum GH concentration, mean (SD): pre-dose
Excerpt: • Part 1: To evaluate PD (GH response) of the new LUM-201 formulation as capsule (test). • Part 2: To measure PD (GH response) to LUM-201 administered as capsule (test) in fasted versus fed state. PD Results (pt 2): Following the administration of LUM-201, the serum GH concentration values increased post dose. At pre-dose, mean (SD) serum GH concentration values were 0.2121 (0.2192) ng/mL in Treatment A and 0.1088 (0.09518) ng/mL in Treatment B. The serum GH concentration value peaked at 22.18 (22.24) ng/mL in Treatment A at 1 h post-dose and 14.10 (13.48) ng/mL in Treatment B at 1.5 h post-dose. The serum GH concentration values in Treatment A were consistently higher compared to Treatment B over time and approached the peak concentration sooner at 1 h post-dose.

CC(C)(N)C(=O)N[C@H](COCc1ccccc1)C(=O)N1CCC2(CC1)CN(S(C)(=O)=O)c1ccccc12 [LUM-201, N-[1(R)-[(1,2-dihydro-1-methanesulfonylspiro[3H-indole-3,4′-piperdin]-yl)carbonyl]-2-(phenylmethyloxy)ethyl]-2-amino-2-methylpropanamide methanesulfonate]
serum GH concentration, peak, mean (SD) (1 h post-dose, Part 2, Treatment A: 85.3 mg capsule, fasted): 22.18 (22.24) ng/mL | serum GH concentration, peak, mean (SD) (1.5 h post-dose, Part 2, Treatment B: 85.3 mg capsule after high-fat meal): 14.10 (13.48) ng/mL | serum GH concentrations 1.5 hours after administration, fasted vs fed (Part 2, Treatment A (fasted state) and Treatment B (fed state)): comparable | serum GH concentration, mean (SD) (Part 2, Treatment A: 85.3 mg capsule, fasted): 0.2121 (0.2192) ng/mL | serum GH concentration, mean (SD) (Part 2, Treatment B: 85.3 mg capsule after high-fat meal): 0.1088 (0.09518) ng/mL
